This is an account of results in patent publication US20090012103A1, “SUBSTITUTED HETEROCYCLIC COMPOUNDS” (priority 2007, published 2009).

wild-type human cardiac sodium channel, hNav1.5, sequence (Q14524 whole entry): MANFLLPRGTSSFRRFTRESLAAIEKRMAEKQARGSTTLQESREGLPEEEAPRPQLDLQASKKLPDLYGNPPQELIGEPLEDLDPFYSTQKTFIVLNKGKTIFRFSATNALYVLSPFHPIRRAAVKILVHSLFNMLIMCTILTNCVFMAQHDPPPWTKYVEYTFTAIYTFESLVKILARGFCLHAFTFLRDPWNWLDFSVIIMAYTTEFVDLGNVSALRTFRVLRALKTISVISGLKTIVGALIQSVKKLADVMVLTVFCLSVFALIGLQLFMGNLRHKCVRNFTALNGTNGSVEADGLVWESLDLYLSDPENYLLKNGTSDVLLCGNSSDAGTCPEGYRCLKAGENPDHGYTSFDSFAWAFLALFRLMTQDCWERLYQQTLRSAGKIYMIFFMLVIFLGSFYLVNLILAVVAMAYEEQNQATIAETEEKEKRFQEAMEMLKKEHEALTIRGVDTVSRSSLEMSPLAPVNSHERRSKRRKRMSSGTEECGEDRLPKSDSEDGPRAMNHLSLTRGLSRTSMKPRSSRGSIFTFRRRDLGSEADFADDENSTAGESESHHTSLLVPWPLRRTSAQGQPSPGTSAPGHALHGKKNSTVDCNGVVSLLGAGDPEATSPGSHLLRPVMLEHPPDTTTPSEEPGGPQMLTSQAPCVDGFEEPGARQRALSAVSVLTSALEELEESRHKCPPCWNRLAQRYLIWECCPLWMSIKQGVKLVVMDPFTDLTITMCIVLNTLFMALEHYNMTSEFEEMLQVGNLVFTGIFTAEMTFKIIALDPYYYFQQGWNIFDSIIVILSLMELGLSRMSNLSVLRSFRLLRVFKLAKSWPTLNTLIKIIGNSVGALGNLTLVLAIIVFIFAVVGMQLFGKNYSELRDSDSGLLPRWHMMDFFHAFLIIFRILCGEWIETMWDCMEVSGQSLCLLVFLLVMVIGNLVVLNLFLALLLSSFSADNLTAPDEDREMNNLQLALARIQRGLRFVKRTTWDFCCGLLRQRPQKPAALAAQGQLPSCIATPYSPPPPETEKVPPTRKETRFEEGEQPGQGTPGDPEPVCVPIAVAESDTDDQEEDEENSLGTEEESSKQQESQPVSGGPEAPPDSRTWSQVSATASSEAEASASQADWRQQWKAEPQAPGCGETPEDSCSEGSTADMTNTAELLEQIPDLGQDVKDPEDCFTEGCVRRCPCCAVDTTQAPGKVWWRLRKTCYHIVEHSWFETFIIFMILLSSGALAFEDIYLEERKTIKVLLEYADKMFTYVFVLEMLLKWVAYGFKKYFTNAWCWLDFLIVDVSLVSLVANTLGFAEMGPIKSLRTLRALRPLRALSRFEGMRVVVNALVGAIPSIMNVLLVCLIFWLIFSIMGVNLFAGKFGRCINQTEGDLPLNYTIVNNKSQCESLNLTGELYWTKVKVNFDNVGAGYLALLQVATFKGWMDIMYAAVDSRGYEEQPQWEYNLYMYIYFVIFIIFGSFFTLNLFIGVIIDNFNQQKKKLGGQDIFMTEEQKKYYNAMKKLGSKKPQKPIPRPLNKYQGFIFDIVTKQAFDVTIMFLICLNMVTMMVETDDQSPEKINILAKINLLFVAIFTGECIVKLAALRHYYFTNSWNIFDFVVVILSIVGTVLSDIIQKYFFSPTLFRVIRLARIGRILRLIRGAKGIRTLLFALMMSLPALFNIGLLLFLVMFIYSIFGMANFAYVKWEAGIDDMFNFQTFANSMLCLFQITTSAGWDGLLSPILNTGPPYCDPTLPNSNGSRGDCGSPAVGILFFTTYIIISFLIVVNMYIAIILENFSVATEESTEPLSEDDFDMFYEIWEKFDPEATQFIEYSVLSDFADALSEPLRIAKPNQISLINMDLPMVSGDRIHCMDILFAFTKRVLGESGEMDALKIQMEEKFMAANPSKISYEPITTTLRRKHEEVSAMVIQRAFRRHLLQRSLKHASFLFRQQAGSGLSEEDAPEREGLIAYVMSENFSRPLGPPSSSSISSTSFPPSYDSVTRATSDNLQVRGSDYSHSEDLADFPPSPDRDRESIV

The target of one experiment is wild-type human cardiac sodium channel, hNav1.5 (Homo sapiens, UniProt Q14524). The experiment in a line: Late INa screening assay (late sodium current, PatchXpress whole cell patch clamp). In kind it is cell-based. Particulars: compound at 10 μM; read-out: Late INa % blk. The protocol:
The late sodium current (Late INa) and peak sodium current (Peak INa) assays are performed on an automated electrophysiology platform, PatchXpress 7000A (MDS Analytical Technologies, Sunnyvale, Calif.), which uses the whole cell patch clamp technique to measure currents through the cell membrane of up to 16 cells at a time. The assay uses an HEK293 (human embryonic kidney) cell line heterologously expressing the wild-type human cardiac sodium channel, hNav1.5, purchased from Millipore (Billerica, Mass.). No beta subunits were coexpressed with the Na channel alpha subunit. […] Experiments are carried out at 24-27° C.
For both the Late INa and Peak INa assays, series resistance compensation is set to 50% and whole-cell compensation is performed automatically. […] Currents through open sodium channels are automatically recorded and stored in the DataXpress2 database (MDS Analytical Technologies, Sunnyvale, Calif.). Analysis is performed using DataXpress2 analysis software and data are compiled in Excel.
Compound stocks are routinely made in glass vials to 10 mM in dimethyl sulfoxide (DMSO). In some cases, when compounds are not soluble in DMSO, they are made in 100% ethanol. Stocks are sonicated as necessary. The extracellular solution for screening Late INa is composed of: 140 mM NaCl, 4 mM KCl, 1.8 mM CaCl2, 0.75 mM MgCl2, and 5 mM HEPES with pH adjusted to 7.4 using NaOH. The extracellular solution for screening Peak INa is composed of: 20 mM NaCl, 120 mM N-methyl-D glucamine, 4 mM KCl, 1.8 mM CaCl2, 0.75 mM MgCl2, and 5 mM HEPES with pH adjusted to 7.4 using HCl. The intracellular solution used to perfuse the inside of the cells for both the Late INa and Peak INa assays contains: 120 mM CsF, 20 mM CsCl, 5 mM EGTA, 5 mM HEPES and pH adjusted to 7.4 with CsOH. Compounds are diluted in extracellular solution to 10 μM in glass vials and then transferred to glass well plates before robotic addition to the cells. The 0 Na extracellular solution used at the end of each experiment for the Late INa and Peak INa assays to measure baseline current contains: 140 mM N-methyl-D-glucamine; 4 mM KCl; 1.8 mM CaCl2; 0.75 mM MgCl2; 5 mM HEPES and pH was adjusted to 7.4 with HCl.
For the Late INa assay, sodium channels are activated every 10 seconds (0.1 Hz) by depolarizing the cell membrane to −20 mV for 250 milliseconds (ms) from a holding potential of −120 mV.
All compounds are tested to determine their activity in blocking the late sodium current. Late INa current is generated by adding 10 μM Tefluthrin (pyrethroid) to the extracellular solution while recording Na currents. […] For some experiments, 50 nM ATX II (sea anemone toxin), another late INa activator, was used to generate the late component. […] Baseline current in the absence of Na^+ ions is measured at the end of each experiment (after two additions of 0 Na solution-see above) and is used to calculate the percent block by compound.
On the technique in general: The patch-clamp technique gives a direct electrical read-out from membranes.
As for `COC(=O)C1=C(C)Nc2cc(C)nn2C1c1cccc2ccccc12` (stereo not shown) [PT-508, methyl 2,5-dimethyl-7-(naphthalen-1-yl)-4,7-dihydropyrazolo[1,5-a]pyrimidine-6-carboxylate], the inhibition at 10 µM was 11.6%.

For the compound `CCOC(=O)C1=C(C)NC(C)=C(C(=O)OCC)C1c1ccc(N(C)C)cc1OC` [PT-436, diethyl 4-(4-(dimethylamino)-2-methoxyphenyl)-2,6-dimethyl-1,4-dihydropyridine-3,5-dicarboxylate], the inhibition at 10 µM is 18.7%.

For `O=C1CCCC2=C1C(c1cccc3ccccc13)n1nnnc1N2` (stereo not shown) [PT-072, 9-(naphthalen-1-yl)-5,6,7,9-tetrahydrotetrazolo[5,1-b]quinazolin-8(4H)-one], the inhibition at 10 µM is -0.9%.

Regarding `CC1=C(C(=O)N[C@@H](C)c2ccccc2)C(c2cccc3ccccc23)n2nnnc2N1` (stereo partly drawn) [PT-071, 5-methyl-7-(naphthalen-1-yl)-N-((S)-1-phenylethyl)-4,7-dihydrotetrazolo[1,5-a]pyrimidine-6-carboxamide], the inhibition at 10 µM was 16.3%.

For `CC1=C(C(=O)NNC(=O)c2ccccc2)C(c2cccc3ccccc23)n2nnnc2N1` (stereo not shown) [PT-069, N′-benzoyl-5-methyl-7-(naphthalen-1-yl)-4,7-dihydrotetrazolo[1,5-a]pyrimidine-6-carbohydrazide], the inhibition at 10 µM stood at 11.5%.

On to `CCOC(=O)C1=C(C)Nc2nnnn2C1c1ccc(C2C(C(=O)OCC)=C(C)Nc3nnnn32)cc1` (stereo not shown) [PT-201, diethyl 7,7′-(1,4-phenylene)bis(5-methyl-4,7-dihydrotetrazolo[1,5-a]pyrimidine-6-carboxylate)], for which the inhibition at 10 µM was found to be 7.8%.

With `CCOC(=O)C1=C(C)Nc2nnnn2C1c1c(C)cccc1C` (stereo not shown) [PT-487, ethyl 7-(2,6-dimethylphenyl)-5-methyl-4,7-dihydrotetrazolo[1,5-a]pyrimidine-6-carboxylate], the inhibition at 10 µM was 20.9%.

For the compound `CC1=C(C(=O)OCc2ccccc2)C(c2ccccc2-c2cccc(N)c2)n2nnnc2N1` (stereo not shown) [PT-399, benzyl 7-(3′-aminobiphenyl-2-yl)-5-methyl-4,7-dihydrotetrazolo[1,5-a]pyrimidine-6-carboxylate], the inhibition at 10 µM is 66.2%.

Regarding `CC1=C(C(=O)OC(c2ccc(F)cc2)c2ccc(F)cc2)C(c2cccc3ccccc23)n2nnnc2N1` (stereo not shown) [PT-007, bis(4-fluorophenyl)methyl 5-methyl-7-(naphthalen-1-yl)-4,7-dihydrotetrazolo[1,5-a]pyrimidine-6-carboxylate], the inhibition at 10 µM turned out to be 44%.

With `CC1=C(C(=O)NCCc2ccccc2)C(c2cccc3ccccc23)n2nnnc2N1` (stereo not shown) [PT-310, 5-methyl-7-(naphthalen-1-yl)-N-phenethyl-4,7-dihydrotetrazolo[1,5-a]pyrimidine-6-carboxamide], the inhibition at 10 µM stood at 23.6%.

Turning to `CCOC(=O)C1=C(C)Nc2nnnn2C1c1ccccc1-c1cccs1` (stereo not shown) [PT-462, ethyl 5-methyl-7-(2-(thiophen-2-yl)phenyl)-4,7-dihydrotetrazolo[1,5-a]pyrimidine-6-carboxylate], the inhibition at 10 µM worked out at 63%.

Turning to `CCOC(=O)C1=C(C)Nc2nnnn2C1c1ccccc1-c1cccnc1` (stereo not shown) [PT-459, ethyl 5-methyl-7-(2-(pyridin-3-yl)phenyl)-4,7-dihydrotetrazolo[1,5-a]pyrimidine-6-carboxylate], the inhibition at 10 µM was 10.3%.

For the compound `CCOC(=O)C1=C(C)Nc2nnnn2C1c1ccccc1-c1cncnc1` (stereo not shown) [PT-461, ethyl 5-methyl-7-(2-(pyrimidin-5-yl)phenyl)-4,7-dihydrotetrazolo[1,5-a]pyrimidine-6-carboxylate], the inhibition at 10 µM came to 6.2%.

Regarding `CCC(OC(=O)C1=C(C)Nc2nnnn2C1c1cccc2ccccc12)c1ccccc1` (stereo not shown) [PT-063, 1-phenylpropyl 5-methyl-7-(naphthalen-1-yl)-4,7-dihydrotetrazolo[1,5-a]pyrimidine-6-carboxylate], the inhibition at 10 µM was found to be 47.5%.

On to `CCOC(=O)C1=C(C)NC(C)=C(C(=O)OCC)C1c1ccc(N(C)C)cc1[N+](=O)[O-]` [PT-437, diethyl 4-(4-(dimethylamino)-2-nitrophenyl)-2,6-dimethyl-1,4-dihydropyridine-3,5-dicarboxylate], for which the inhibition at 10 µM stood at 43.1%.

For the compound `COc1ccc(C2C(C(=O)OCc3ccccc3)=C(C)Nc3nnnn32)c(OCc2ccccc2)c1` (stereo not shown) [PT-380, benzyl 7-(2-(benzyloxy)-4-methoxyphenyl)-5-methyl-4,7-dihydrotetrazolo[1,5-a]pyrimidine-6-carboxylate], the inhibition at 10 µM was 70.9%.

On to `COc1ccc(C2C(C(=O)OCc3ccccc3)=C(C)Nc3c(C(=O)O)cnn32)c2ccccc12` (stereo not shown) [PT-312, 6-(benzyloxycarbonyl)-7-(4-methoxynaphthalen-1-yl)-5-methyl-4,7-dihydropyrazolo[1,5-a]pyrimidine-3-carboxylic acid], for which the inhibition at 10 µM stood at 5.2%.

`CC1=C(C(=O)OCc2ccccc2)C(c2ccc(S(C)(=O)=O)cc2[N+](=O)[O-])n2nnnc2N1` (stereo not shown) [PT-353, benzyl 5-methyl-7-(4-(methylsulfonyl)-2-nitrophenyl)-4,7-dihydrotetrazolo[1,5-a]pyrimidine-6-carboxylate]: the inhibition at 10 µM was 5.8%.

Consider `CC1=C(C(=O)OCc2ccccc2)C(c2cccc3ccccc23)n2nnnc2N1CC(=O)O` (stereo not shown) [PT-257, 2-(6-(benzyloxycarbonyl)-5-methyl-7-(naphthalen-1-yl)tetrazolo[1,5-a]pyrimidin-4(7H)-yl)acetic acid], for which the inhibition at 10 µM is 7.4%.

For `CC1=C(C(=O)OC(C)C)C(c2cccc3ccccc23)C2=C(CCCC2=O)N1` (stereo not shown) [PT-158, isopropyl 2-methyl-4-(naphthalen-1-yl)-5-oxo-1,4,5,6,7,8-hexahydroquinoline-3-carboxylate], the inhibition at 10 µM worked out at 38.7%.

Regarding `CC1=C(C(=O)OCc2ccc(-n3cccn3)cc2)C(c2cccc3ccccc23)n2nnnc2N1` (stereo not shown) [PT-289, 4-(1H-pyrazol-1-yl)benzyl 5-methyl-7-(naphthalen-1-yl)-4,7-dihydrotetrazolo[1,5-a]pyrimidine-6-carboxylate], the inhibition at 10 µM was 3.3%.

Turning to `CC1=C(C(=O)OCc2ccccc2)C(c2ccc(-n3ccnc3)cc2)n2nnnc2N1` (stereo not shown) [PT-402, benzyl 7-(4-(1H-imidazol-1-yl)phenyl)-5-methyl-4,7-dihydrotetrazolo[1,5-a]pyrimidine-6-carboxylate], the inhibition at 10 µM worked out at 18.3%.

Take `COc1ccc(-c2ccccc2C2C(C(=O)OCc3ccccc3)=C(C)Nc3nnnn32)cc1` (stereo not shown) [PT-420, benzyl 7-(4′-methoxybiphenyl-2-yl)-5-methyl-4,7-dihydrotetrazolo[1,5-a]pyrimidine-6-carboxylate]: the inhibition at 10 µM amounted to 75.3%.

Take `COC(=O)C1=C(C)Nc2nnnn2C1c1ccccc1I` (stereo not shown) [PT-519, methyl 7-(2-iodophenyl)-5-methyl-4,7-dihydrotetrazolo[1,5-a]pyrimidine-6-carboxylate]: the inhibition at 10 µM was 27.3%.

On to `CC1=C(C(=O)OCc2ccccc2)C(c2ccccc2-c2cccc(C)c2)n2nnnc2N1` (stereo not shown) [PT-350, benzyl 5-methyl-7-(3′-methylbiphenyl-2-yl)-4,7-dihydrotetrazolo[1,5-a]pyrimidine-6-carboxylate], for which the inhibition at 10 µM was determined as 63.2%.

Take `CCOC(=O)c1ccc(N2CCN(C(=O)C3=C(C)NC4=C(C(=O)CCC4)C3c3cccc4ccccc34)CC2)cc1` (stereo not shown) [PT-452, ethyl 4-(4-(2-methyl-4-(naphthalen-1-yl)-5-oxo-1,4,5,6,7,8-hexahydroquinoline-3-carbonyl)piperazin-1-yl)benzoate]: the inhibition at 10 µM stood at 5.9%.

On to `CC1=C(C(=O)OCc2cccc(-c3nnn[nH]3)c2)C(c2cccc3ccccc23)n2nnnc2N1` (stereo not shown) [PT-271, 3-(1H-tetrazol-5-yl)benzyl 5-methyl-7-(naphthalen-1-yl)-4,7-dihydrotetrazolo[1,5-a]pyrimidine-6-carboxylate], for which the inhibition at 10 µM turned out to be 5.8%.

Still in this experiment, the particulars now being: read-out: Late INa % blk.
As for `c1ccc2c(c1)CCC1=C2C(c2cccc3ccccc23)n2nnnc2N1` (stereo not shown) [PT-198, 12-(naphthalen-1-yl)-5,6,7,12-tetrahydrobenzo[f]tetrazolo[5,1-b]quinazoline], the inhibition at 10 µM is 50.9%.
